Tests used:
[1] = test system: BxPC-3 cells (KRAS-wild-type PDAC); experiment: 2D cytotoxicity, MTT assay, BxPC-3; format: cell-based; details: Homo sapiens, BXPC-3; 72 h exposure, MTT test, 2D culture; read-out: IC50 (µM) ± S.D. BxPC-3 (2D)
Experimental: (§1) All newly developed 1,2,4-amino-triazine compounds were screened for their cytotoxic activity against two human PDAC cell lines, namely, a KRAS-wild-type PDAC cell line (BxPC-3 cells) and a KRAS-mutant PDAC cell line (PSN-1 cells). […] The cytotoxicity parameters, expressed in terms of IC50 and obtained after 72 h of drug exposure by MTT assay, are reported in Table 3.
(§2) All tested compounds were dissolved in DMSO just before the experiment, and a calculated amount of drug solution was added to the cell growth medium to a final solvent concentration of 0.5%, which had no detectable effects on cell viability.
(§3) Human pancreatic PSN-1 and BxPC-3 carcinoma cell lines were obtained by American Type Culture Collection (ATCC, Rockville, MD, USA). Cell lines were maintained in the logarithmic phase at 37 °C in a 5% carbon dioxide atmosphere using RPMI-1640 medium (EuroClone) containing 10% fetal calf serum (EuroClone, Milan, Italy), antibiotics (50 units/mL penicillin and 50 μg/mL streptomycin) and 2 mM l-glutamine.
(§4) The growth inhibitory effect on tumor cells was evaluated by means of MTT assay. Briefly, 5 × 10^3 cells/well were seeded in 96-well microplates in a growth medium (100 μL). After 24 h, the medium was removed and replaced with a fresh one containing the compound to be studied at the appropriate concentration. Triplicate cultures were established for each treatment. After 72 h, each well was treated with 10 μL of a 5 mg/mL MTT saline solution, and following 5 h of incubation, 100 μL of a sodium dodecyl sulfate (SDS) solution in HCl 0.01 M was added. After overnight incubation, cell growth inhibition was detected by measuring the absorbance of each well at 570 nm using a Bio-Rad 680 microplate reader. The mean absorbance for each drug dose was expressed as a percentage of the control untreated well absorbance and plotted vs. drug concentration. IC50 values, the drug concentrations that reduce the mean absorbance at 570 nm to 50% of those in the untreated control wells, were calculated by the four-parameter logistic (4-PL) model. The evaluation was based on means from at least four independent experiments.

BxPC-3 spheroids = experiment: 3D spheroid cytotoxicity, acid phosphatase (APH) assay, BxPC-3; format: cell-based; details: Homo sapiens, 72 h, acid phosphatase (APH) test, read-out: IC50 (µM) ± S.D. BxPC-3 (3D spheroids)
[2] = test system: PSN-1 cells (KRAS-mutant PDAC); experiment: 2D cytotoxicity, MTT assay, PSN-1; format: cell-based; details: Homo sapiens, PSN1; 72 h exposure, MTT test, 2D culture; read-out: IC50 (µM) ± S.D. PSN-1 (2D)
Experimental: as §1, §2, §3, §4

recombinant human PDK1 = molecular target: T1, recombinant human PDK1 (Homo sapiens, UniProt Q15118); experiment: PDK1 ADPGlo Kinase Assay; format: biochemical; details: for inhibition of PDK1 enzymatic activity: 1.5 µM compound, 30 min, room temperature; for IC50: isolated PDK1 isoform, four-parameter logistic model, mean of 3 independent experiments, read-out: IC50 (µM) ± S.D. PDK1
T1 construct: purchased Abcam
Experimental: The ability of the tested compounds to hamper the activity of PDK1-4 isoforms was firstly evaluated by means of a chemioluminescent assay, the ADPGlo™ Kinase Assay kit (Promega Corporation, Madison, WI, USA).
(§5) The in vitro inhibitory activity of tested compounds on recombinant human PDK1-4 isoforms (Abcam, Cambridge, MA, USA) was evaluated by using the ADPGlo™ Kinase Assay kit from Promega (Promega Corporation, Madison, WI, USA) following the instructions of the manufacturer, as previously described.

recombinant human HSP90 = recombinant human HSP90 (Homo sapiens, UniProt P07900); experiment: HSP90 inhibition assay (Transcreener ADP kit); format: biochemical; details: for inhibition of HSP90 enzyme activity: 1.5 µM compound; for IC50: isolated HSP90, four-parameter logistic model, mean of 3 independent experiments, read-out: IC50 (µM) ± S.D. HSP90
Experimental: Since the ATP binding pockets in PDKs and HSP90 are similar and taking into consideration that these 1,2,4-triazine derivatives conserved a chemical scaffold resembling that of the well-known Hsp90 inhibitor Ganetespib, the most performant PDK inhibitors 4d, 4f, 4h, 5d, 5f, 5h and 5j were also screened for their ability to target HSP90.
The in vitro inhibitory activity of tested compounds on recombinant human HSP90 was assessed by The Transcreener™ ADP kit (Bellbrook Labs, Madison, WI, USA) according to the manufacturer’s protocol as previously described.

PSN-1 spheroids = experiment: 3D spheroid cytotoxicity, acid phosphatase (APH) assay, PSN-1; format: cell-based; details: Homo sapiens, PSN1, 72 h, acid phosphatase (APH) test, read-out: IC50 (µM) ± S.D. PSN-1 (3D spheroids)
Experimental: Prompted by these encouraging results, we also screened the newly developed 1,2,4-triazine compounds against 3D spheroids of PDAC KRAS wild-type and mutant cells, to further estimate their anticancer potential in a more predictive environment. […] The PDAC cancer spheroids were treated with tested compounds for 72 h, and cell viability was assessed by means of the acid phosphatase (APH) assay (Table 3). The efficacy of gemcitabine as well as of DCA and DAP was assessed under the same experimental conditions.
Spheroid cultures were obtained by seeding 2.5 × 10^3 PSN-1 cancer cells/well in a round-bottom non-treated tissue culture 96-well plate (Greiner Bio-one, Kremsmünster, Austria) in phenol red-free RPMI-1640 medium (Sigma Chemical Co, St. Louis, MO, USA) containing 10% fetal calf serum and supplemented with 20% methylcellulose stock solution.
An APH-modified assay was used for determining cell viability in 3D spheroids, as previously described. Briefly, the pre-seeded spheroids were treated with fresh medium containing the compound to be studied at the appropriate concentration (range 2.5–200 μM). Triplicate cultures were established for each treatment. After 72 h, each well was treated with 100 μL of the assay buffer (0.1 M sodium acetate, 0.1% Triton-X-100, supplemented with ImmunoPure p-nitrophenyl phosphate; Sigma Chemical Co.) and, following 3 h of incubation, 10 μL of 1 M NaOH solution were added. The inhibition of the cell growth induced by the tested compounds was detected by measuring the absorbance of each well at 405 nm, using a Bio-Rad 680 microplate reader. The mean absorbance for each drug dose was expressed as a percentage of the control untreated well absorbance (T/C) and plotted vs. drug concentration. IC50 values, the drug concentrations that reduce the mean absorbance at 405 nm 50% of those in the untreated control wells, were calculated by the four-parameter logistic (4-PL) model. The evaluation was based on means from at least four independent experiments.

recombinant human PDK4 = molecular target: T2, recombinant human PDK4 (Homo sapiens, UniProt Q16654); experiment: PDK4 ADPGlo Kinase Assay; format: biochemical; details: 1.5 µM compound, 30 min, room temperature
T2 construct: purchased Abcam
Experimental: The ability of the tested compounds to hamper the activity of PDK1-4 isoforms was firstly evaluated by means of a chemioluminescent assay, the ADPGlo™ Kinase Assay kit (Promega Corporation, Madison, WI, USA). The results obtained by incubating PDK1-4 isoforms for 30 min at room temperature with 1.5 µM of tested compounds are depicted in Figure 3 panel A as a heat-map summary of the inhibition percentage on PDK1-4 enzymatic activity. All the newly synthesized compounds were able to inhibit the pyruvate dehydrogenase kinases, although to a different extent and showing a preferential activity towards the PDK1 and PDK4 isoforms. […] Conversely, all tested 1,2,4-triazin-3-amines were barely effective in blocking PDK2 activity at 1.5 µM concentration. In addition, IC50 values on the PDK1 isoform were also calculated for all synthesized derivatives and the results are shown in Table 2.
as §5

T1 sequence (Q15118 29-436): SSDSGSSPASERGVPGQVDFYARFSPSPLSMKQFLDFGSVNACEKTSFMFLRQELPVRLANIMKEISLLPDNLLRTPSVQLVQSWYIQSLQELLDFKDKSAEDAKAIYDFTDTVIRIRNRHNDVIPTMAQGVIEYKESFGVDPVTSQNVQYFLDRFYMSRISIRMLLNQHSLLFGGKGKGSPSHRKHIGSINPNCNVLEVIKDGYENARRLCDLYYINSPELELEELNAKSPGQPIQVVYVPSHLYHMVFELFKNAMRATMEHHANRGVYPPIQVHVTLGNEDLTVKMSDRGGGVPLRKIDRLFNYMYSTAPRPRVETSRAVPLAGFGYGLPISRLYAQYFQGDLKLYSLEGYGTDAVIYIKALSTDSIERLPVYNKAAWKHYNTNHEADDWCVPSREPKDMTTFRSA
T2 sequence (Q16654 whole entry): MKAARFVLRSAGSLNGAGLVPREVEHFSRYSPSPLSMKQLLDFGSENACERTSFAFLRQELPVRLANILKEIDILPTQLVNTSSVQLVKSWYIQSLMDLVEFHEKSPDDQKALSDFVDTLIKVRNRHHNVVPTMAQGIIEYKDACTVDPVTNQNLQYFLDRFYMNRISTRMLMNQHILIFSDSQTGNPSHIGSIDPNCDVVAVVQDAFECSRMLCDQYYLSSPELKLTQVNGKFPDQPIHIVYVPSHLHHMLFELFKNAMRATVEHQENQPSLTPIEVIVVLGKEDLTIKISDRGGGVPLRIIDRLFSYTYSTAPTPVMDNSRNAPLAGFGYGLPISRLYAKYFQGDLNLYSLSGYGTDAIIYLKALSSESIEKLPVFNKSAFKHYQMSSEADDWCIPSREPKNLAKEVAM

Row | inhibition of PDK1 enzymatic activity (recombinant human PDK1) | IC50 (recombinant human PDK1) | inhibition of HSP90 enzyme activity (recombinant human HSP90) | IC50 (recombinant human HSP90) | inhibition of PDK4 enzymatic activity (recombinant human PDK4) | melting point | decrease of HSP90 catalytic activity (recombinant human HSP90; 1.5 µM compound (equi-doses)) | SMILES | IC50 [1] | IC50 (BxPC-3 spheroids) | IC50 [2] | IC50 (PSN-1 spheroids)
1 | totally hampered | 0.04 ± 0.02 µM | completely abolish | 0.06 ± 0.02 µM | completely suppress | – | – | Cn1cc(-c2nnc(N)nc2-c2cn(C)c3ncc(Br)cc23)c2cc(Br)ccc21 [4d, 6-(5-Bromo-1-methyl-1H-indol-3-yl)-5-(5-bromo-1-methyl-1H-pyrrolo[2,3-b]pyridin-3-yl)-1,2,4-triazin-3-amine] | 30.2 ± 6.2 µM | 176 ± 15.7 µM | 23.4 ± 3.7 µM | 103 ± 9.1 µM
2 | totally hampered | 0.12 ± 0.04 µM | completely abolish | 0.1 ± 0.03 µM | – | 262.1 °C | – | Cn1cc(-c2nnc(N)nc2-c2cn(C)c3ncc(Br)cc23)c2cc(Cl)ccc21 [4f, 5-(5-Bromo-1-methyl-1H-pyrrolo[2,3-b]pyridin-3-yl)-6-(5-chloro-1-methyl-1H-indol-3-yl)-1,2,4-triazin-3-amine] | 18.4 ± 1.4 µM | 169 ± 12.4 µM | 11.3 ± 1.8 µM | 162 ± 6.8 µM
3 | totally hampered | 0.06 ± 0.02 µM | completely abolish | – | – | 155.6 °C | – | Cn1cc(-c2nnc(N)nc2-c2cn(C)c3ncc(Br)cc23)c2cc(F)ccc21 [4h, 5-(5-Bromo-1-methyl-1H-pyrrolo[2,3-b]pyridin-3-yl)-6-(5-fluoro-1-methyl-1H-indol-3-yl)-1,2,4-triazin-3-amine] | 22.3 ± 2.4 µM | 188 ± 14.4 µM | 17.5 ± 2.8 µM | 77.8 ± 3.8 µM
4 | totally hampered | 0.05 ± 0.02 µM | completely abolish | 0.07 ± 0.01 µM | completely suppress | 333.7 °C | – | Cn1cc(-c2nc(N)nnc2-c2cn(C)c3ncc(Br)cc23)c2cc(Br)ccc21 [5d, 5-(5-Bromo-1-methyl-1H-indol-3-yl)-6-(5-bromo-1-methyl-1H-pyrrolo[2,3-b]pyridin-3-yl)-1,2,4-triazin-3-amine] | 26.7 ± 6.1 µM | 198 ± 14.2 µM | 21.3 ± 3.5 µM | 216 ± 13.6 µM
5 | totally hampered | 0.08 ± 0.02 µM | completely abolish | 0.11 ± 0.04 µM | completely suppress | 334.6 °C | – | Cn1cc(-c2nc(N)nnc2-c2cn(C)c3ncc(Br)cc23)c2cc(Cl)ccc21 [5f, 6-(5-Bromo-1-methyl-1H-pyrrolo[2,3-b]pyridin-3-yl)-5-(5-chloro-1-methyl-1H-indol-3-yl)-1,2,4-triazin-3-amine] | 22.4 ± 3.2 µM | 229 ± 17.2 µM | 21.3 ± 4.4 µM | 213 ± 14.4 µM
6 | totally hampered | 0.05 ± 0.03 µM | completely abolish | 0.09 ± 0.03 µM | completely suppress | 311.1 °C | – | Cn1cc(-c2nc(N)nnc2-c2cn(C)c3ncc(Br)cc23)c2cc(F)ccc21 [5h, 6-(5-Bromo-1-methyl-1H-pyrrolo[2,3-b]pyridin-3-yl)-5-(5-fluoro-1-methyl-1H-indol-3-yl)-1,2,4-triazin-3-amine] | 0.05 ± 0.03 µM | 208 ± 12.7 µM | 27.4 ± 5.1 µM | 132 ± 5.9 µM
7 | totally hampered | 0.04 ± 0.02 µM | – | 0.18 ± 0.04 µM | completely suppress | 269.8 °C | 60–80% | COc1ccc2c(c1)c(-c1nc(N)nnc1-c1cn(C)c3ncc(Br)cc13)cn2C [5j, 6-(5-Bromo-1-methyl-1H-pyrrolo[2,3-b]pyridin-3-yl)-5-(5-methoxy-1-methyl-1H-indol-3-yl)-1,2,4-triazin-3-amine] | 0.04 ± 0.02 µM | 79.5 ± 5.4 µM | 0.1 ± 0.03 µM | 89.7 ± 5.7 µM
